In one assay the test system is KU19-19. As to the kind of experiment: Cell based assay, cell viability (CellTiter-Glo), KU19-19. The note with it: Homo sapiens, KU-19-19; 72 hours, 0 to 2 µM; read-out: cell based assay cell line 2 KU19-19 IC50. As to the method:
(§1) Commercially available bladder cancer cell lines were treated with trypsin-EDTA and seeded in each well of a 96 well plate, followed by incubation for 24 hours. After incubation, candidate compounds were added to each well at a final concentration of 0 to 2 µM. The compound-treated cells were further incubated for 72 hours. Cell viability was measured using an ATP detection method (CellTiter-Glo Luminescent Cell Viability Assay, Promega).
(§2) The selectivity of the compounds of the present disclosure to cancer cells was evaluated in the same manner as described in "2. Cell based assay".

The next assay relates to MBT-2. As to the kind of experiment: Cell based assay, cell viability (CellTiter-Glo), MBT-2. The note with it: 72 hours, 0 to 2 µM; read-out: cell based assay cell line 1 MBT-2 IC50. The method, then:
as §1, §2
(In general: ATP-based viability assays read luminescence as a measure of living cells.)

The test system of a further assay is 253J. As to the kind of experiment: Cell based assay, cell viability (CellTiter-Glo), 253J. The note with it: Homo sapiens; 72 hours, 0 to 2 µM; read-out: cell based assay cell line 3 253J IC50. The method, then:
as §1, §2

In another assay the test system is UM-UC-3. The assay is described as follows: Cell based assay, cell viability (CellTiter-Glo), UM-UC-3. Particulars: Homo sapiens, UMUC3; 72 hours, 0 to 2 µM; read-out: cell based assay cell line 4 UM-UC-3 IC50. The method, then:
as §1, §2

pIC50: −log10 of the molar value. Where only a bound is given, the exact number is not on record here.

What is called pIC50 is the IC50 on a negative log10 scale, so that one unit is a factor of ten.

With `Cc1cc(C[S+]([O-])c2[nH]c3c(Cl)ccc(Cl)c3c(=O)c2C(=O)C2CC2)no1` (stereo not drawn) [Compound 97, 5,8-dichloro-3-(cyclopropanecarbonyl)-2-(((5 - methylisoxazol-3-yl)methyl)sulfinyl)quinolin-4(1H)-one], the pIC50 with KU19-19 is 5.79; in the assay on MBT-2, 6.09; in the assay with 253J, 5.92; in the assay with UM-UC-3 it was 5.90.
As for `CC(=O)c1c([S+]([O-])Cc2ccc(C(=O)c3ccccc3)cc2)[nH]c2c(Br)ccc(Cl)c2c1=O` (stereo not drawn) [Compound 63, 3-acetyl-2-((4-benzoylbenzyl)sulfinyl)-8-bromo-5-chloroquinolin-4(1H)-one], the negative-log IC50 (pIC50) in the assay on KU19-19, with MBT-2, in the assay on 253J and with UM-UC-3 was below 5.70 in each case.
In the case of `CC(=O)c1c([S+]([O-])Cc2cccc(I)c2)[nH]c2c(Br)ccc(Cl)c2c1=O` (stereo not drawn) [Compound 48, 3-acetyl-8-bromo-5-chloro-2-((3-iodobenzyl)sulfinyl)quinolin-4(1H)-one], the pIC50 is below 5.70 in the assay with KU19-19, below 5.70 in the assay with MBT-2, below 5.70 in the assay with 253J and 5.74 in the assay on UM-UC-3.
Turning to `Cc1cc(C[S+]([O-])c2[nH]c3c(Br)ccc(Cl)c3c(=O)c2C(=O)C2CC2)no1` (stereo not drawn) [Compound 96, 8-bromo-5-chloro-3-(cyclopropanecarbonyl)-2-(((5-methylisoxazol-3-yl)methyl)sulfinyl)quinolin-4(1H)-one], the pIC50 is below 5.70 in the assay on KU19-19, 5.97 in the assay on MBT-2, 5.83 in the assay with 253J and 5.79 in the assay on UM-UC-3.
Turning to `CC(C)C(=O)c1c([S+]([O-])Cc2ccc(SC(F)(F)F)cc2)[nH]c2c(F)ccc(F)c2c1=O` (stereo not drawn) [Compound 85, 5,8-difluoro-3-isobutyryl-2-((4-((trifluoromethyl)thio)benzyl)sulfinyl)quinolin-4(1H)-one], the pIC50 in the assay with KU19-19, in the assay on MBT-2, with 253J and with UM-UC-3 was below 5.70 in each case.
`CC(=O)c1c([S+]([O-])Cc2ccc([S+]([O-])C(F)(F)F)cc2)[nH]c2c(Br)ccc(Cl)c2c1=O` (stereo not drawn) [Compound 64, 3-acetyl-8-bromo-5-chloro-2-((4-((trifluoromethyl)sulfinyl)benzyl)sulfinyl)quin olin-4(1H)-one]: the negative-log IC50 (pIC50) was 5.85 in the assay on KU19-19, 6.08 in the assay with MBT-2, 6.02 with 253J and 5.97 with UM-UC-3.
Take `CC(=O)c1c([S+]([O-])Cc2c(F)c(F)c(F)c(F)c2F)[nH]c2c(Br)ccc(Cl)c2c1=O` (stereo not drawn) [Compound 78, 3-acetyl-8-bromo-5-chloro-2-(((perfluorophenyl)methyl)sulfinyl)quinolin-4(1H)-one]: the pIC50 was below 5.70 with KU19-19, 5.82 in the assay on MBT-2, 5.89 in the assay on 253J and 5.86 with UM-UC-3.
On the same counts, the results for `COC(=O)c1ccc(C[S+]([O-])c2[nH]c3c(Cl)ccc(Cl)c3c(=O)c2C(C)=O)o1` (stereo not drawn) [Compound 89, methyl 5-(((3-acetyl-5,8-dichloro-4-oxo-1,4-dihydroquinolin-2-yl)sulfinyl)methyl)furan-2-carboxylate] are below 5.70, 5.90, 5.74 and 5.83.
Taken in the same sequence, the figures for `Cc1cc(C[S+]([O-])c2[nH]c3c(Cl)ccc(Cl)c3c(=O)c2C(=O)c2ccccc2)no1` (stereo not drawn) [Compound 88, 3-benzoyl-5,8-dichloro-2-(((5-methylisoxazol-3-yl)methyl)sulfinyl)quinolin-4(1H)-one] were below 5.70, below 5.70, below 5.70 and below 5.70.
With `CC(=O)c1c([S+]([O-])c2ccccc2)[nH]c2c(Br)ccc(Cl)c2c1=O` (stereo not drawn) [Compound 13, 3-acetyl-8-bromo-5-chloro-2-(phenylsulfinyl)quinolin-4(1H)-one], the negative-log IC50 (pIC50) in the assay on KU19-19, in the assay on MBT-2, in the assay on 253J and with UM-UC-3 was below 5.70 throughout.
Take `CC(=O)c1c([S+]([O-])Cc2cccc(C#N)c2)[nH]c2c(Br)ccc(Cl)c2c1=O` (stereo not drawn) [Compound 28, 3-(((3-acetyl-8-bromo-5-chloro-4-oxo-1,4-dihydroquinolin-2-yl)sulfinyl)methyl)benzonitrile]: the pIC50 in the assay with KU19-19 was 5.84; in the assay with MBT-2, 6.10; in the assay on 253J, 6.13; in the assay on UM-UC-3 it was 6.10.
As for `CC(=O)c1c([S+]([O-])Cc2ccc(S(F)(F)(F)(F)F)cc2)[nH]c2c(F)ccc(F)c2c1=O` (stereo not drawn) [Compound 80, 3-acetyl-5,8-difluoro-2-((4-(pentafluoro-λ6-sulfanyl)benzyl)sulfinyl)quinolin-4(1H)-one], the pIC50 with KU19-19, with MBT-2, in the assay with 253J and in the assay on UM-UC-3 was below 5.70 each time.
Take `CC(=O)c1c([S+]([O-])Cc2ccc(C(F)(F)F)nc2C)[nH]c2c(Br)ccc(Cl)c2c1=O` (stereo not drawn) [Compound 102, 3-acetyl-8-bromo-5-chloro-2-(((2-methyl-6-(trifluoromethyl)pyridin-3-yl)methyl)sulfinyl)quinolin-4(1H)-one]: the pIC50 in the assay on KU19-19 is 5.80; with MBT-2 it was 6.11; in the assay on 253J, 6.08; in the assay with UM-UC-3, 5.97.
As for `CC(=O)c1c([S+]([O-])Cc2ccccc2C#N)[nH]c2c(Br)ccc(Cl)c2c1=O` (stereo not drawn) [Compound 58, 2-(((3-acetyl-8-bromo-5-chloro-4-oxo-1,4-dihydroquinolin-2-yl)sulfinyl)methyl)benzonitrile], the negative logarithm of the IC50 (pIC50) was 6.04 in the assay with KU19-19, 6.07 in the assay with MBT-2, 6.04 in the assay on 253J and 5.91 in the assay with UM-UC-3.
In the case of `O=C(c1c([S+]([O-])Cc2ccc(SC(F)(F)F)cc2)[nH]c2c(Br)ccc(Cl)c2c1=O)C1CC1` (stereo not drawn) [Compound 101, 8-bromo-5-chloro-3-(cyclopropanecarbonyl)-2-((4-((trifluoromethyl)thio)benzyl)sulfinyl)quinolin-4(1H)-one], the negative-log IC50 (pIC50) with KU19-19 was below 5.70; in the assay with MBT-2 it was below 5.70; in the assay on 253J, 5.74; with UM-UC-3, 5.71.
For the molecule `CC(=O)c1c([S+]([O-])Cc2cccc(S(F)(F)(F)(F)F)c2)[nH]c2c(Br)ccc(Cl)c2c1=O` (stereo not drawn) [Compound 77, 3-acetyl-8-bromo-5-chloro-2-((3-(pentafluoro-λ6-sulfanyl)benzyl)sulfinyl)quinolin-4(1H)-one], the negative-log IC50 (pIC50) with KU19-19 was 5.86; with MBT-2, 5.84; in the assay with 253J, 6.05; in the assay with UM-UC-3, 5.93.
On to `COCCNc1ccc(C[S+]([O-])c2[nH]c3c(Br)ccc(Cl)c3c(=O)c2C(C)=O)cn1` (stereo not drawn) [Compound 105, 3-acetyl-8-bromo-5-chloro-2-(((6-((2-methoxyethyl)amino)pyridin-3-yl)methyl)sulfinyl)quinolin-4(1H)-one], for which the pIC50 with KU19-19, in the assay on MBT-2, in the assay with 253J and in the assay with UM-UC-3 was below 5.70 throughout.
For `CC(=O)c1c([S+]([O-])Cc2ccc(I)cc2)[nH]c2c(Cl)ccc(Cl)c2c1=O` (stereo not drawn) [Compound 83, 3-acetyl-5,8-dichloro-2-((4-iodobenzyl)sulfinyl)quinolin-4(1H)-one], the pIC50 in the assay on KU19-19 is 5.80; in the assay with MBT-2, 5.87; in the assay on 253J it was 5.85; in the assay on UM-UC-3, 5.88.
For `COc1ccccc1[S+]([O-])c1[nH]c2c(Br)ccc(Cl)c2c(=O)c1C(C)=O` (stereo not drawn) [Compound 15, 3-acetyl-8-bromo-5-chloro-2-((2-methoxyphenyl)sulfinyl)quinolin-4(1H)-one], the negative-log IC50 (pIC50) in the assay on KU19-19 was 5.72; with MBT-2 it was below 5.70; in the assay with 253J, below 5.70; in the assay on UM-UC-3, below 5.70.
`Cc1cc(C[S+]([O-])c2[nH]c3c(Br)ccc(Cl)c3c(=O)c2C(=O)C(C)C)no1` (stereo not drawn) [Compound 95, 8-bromo-5-chloro-3-isobutyryl-2-(((5-methylisoxazol-3-yl)methyl)sulfinyl)quinolin-4(1H)-one]: the negative-log IC50 (pIC50) in the assay on KU19-19 was 5.89; in the assay on MBT-2, 6.10; in the assay with 253J it was 6.11; in the assay on UM-UC-3 it was 5.97.
For the molecule `CC(=O)c1c([S+]([O-])Cc2cc(C)on2)[nH]c2c(F)ccc(F)c2c1=O` (stereo not drawn) [Compound 82, 3-acetyl-5,8-difluoro-2-(((5-methylisoxazol-3 - yl)methyl)sulfinyl)quinolin-4(1H)-one], the pIC50 in the assay with KU19-19, in the assay on MBT-2, in the assay on 253J and in the assay on UM-UC-3 was below 5.70 in each case.
`CC(=O)c1c([S+]([O-])Cc2ccccc2)nc2c(Br)ccc(Cl)c2c1O` (stereo not drawn) [Compound 53, 1-(2-(benzylsulfinyl)-8-bromo-5-chloro-4-hydroxyquinolin-3-yl)ethan-1-one]: the pIC50 with KU19-19, with MBT-2, with 253J and in the assay on UM-UC-3 was below 5.70 each time.
On to `CC(=O)c1c(S(=O)(=O)Cc2ccccc2)[nH]c2c(Br)ccc(Cl)c2c1=O` [Compound 34, 3-acetyl-2-(benzylsulfonyl)-8-bromo-5-chloroquinolin-4(1H)-one], for which the pIC50 in the assay on KU19-19, in the assay with MBT-2, in the assay with 253J and with UM-UC-3 was below 5.70 throughout.
Regarding `CC(=O)c1c([S+]([O-])Cc2ccc(N)nc2)[nH]c2c(Br)ccc(Cl)c2c1=O` (stereo not drawn) [Compound 100, 3-acetyl-2-(((6-aminopyridin-3-yl)methyl)sulfinyl)-8-bromo-5-chloroquinolin-4(1H)-one], the pIC50 in the assay with KU19-19, in the assay with MBT-2, in the assay with 253J and with UM-UC-3 was below 5.70 each time.

(Values after patent EP3495350B1, “COMPOUND INHIBITING FORMATION OF C-MYC/MAX/DNA COMPLEX” (National Cancer Center, priority 2016, dated 2018).)
